For 103 compounds, cytotoxicity results are on record in ChEMBL document CHEMBL3507680, “University of Dundee, Gates Library screen for HepG2 cell viability”.

A short description of the data set: Human HepG2 cell viability assay in 384 well format. The class given is toxicity, cell-based. As to conditions: HepG2 cells, read-out: Inhibition. Further details: dose 125 nL, time 70.5 hour; cytotoxicity at 70.5 h: concentration not given beside the values.
With `Cc1cnn(CC2CCCCN2CCCS(C)(=O)=O)c1` (stereo not drawn), the cytotoxicity at 70.5 h was -2.88%.

As for `COc1ccc(C(=O)N2CCCC(n3cc(C)cn3)C2)c(F)c1` (stereo not drawn), the cytotoxicity at 70.5 h is -3.25%.

`Cc1ncncc1C(=O)N1CCCC(n2cccn2)C1` (stereo not drawn): the cytotoxicity at 70.5 h amounted to 8.65%. The result for `COc1ccc(CC(=O)N2CCCC(n3cc(C)cn3)C2)c(OC)c1` (stereo not drawn) reads -6.34%; that for `Cc1cnn(CC2CCCN2CCCS(C)(=O)=O)c1` (stereo not drawn), -2.25%. To `Cn1cc(CCC(=O)N2CCCC(n3cncn3)C2)cn1` (stereo not drawn) belongs -0.386%; to `COc1ccc(CC(=O)N2CCCC(n3cccn3)C2)cc1F` (stereo not drawn), -6.84%; to `CCc1nc(C2CCCN2C(=O)c2ccc3c(c2)COC3)no1` (stereo not drawn), -2.9%. To `NC(=O)C1CCN(C(=O)NCc2ccccc2-n2cccn2)C1` (stereo not drawn) belongs -4.02%.

As to `O=C(c1ccn(-c2ccccc2)n1)N1CCCC(n2cccn2)C1` (stereo not drawn), the cytotoxicity at 70.5 h is -0.6%. Take `CN(C(=O)Cc1ccc(F)cc1)C1CCN(c2ccccn2)CC1`: the cytotoxicity at 70.5 h was -1.36%. To `CCNc1cc2c(nn1)CCN(C(=O)c1cc3ccccc3o1)C2` belongs -6.18%.

For the compound `Cc1cnn(CC2CCCCN2C(=O)c2ccc3nncn3c2)c1` (stereo not drawn), the cytotoxicity at 70.5 h is -3.43%. The result for `CCc1nc(C2CCCN2C(=O)c2ccc3c(c2)nnn3C)no1` (stereo not drawn) reads 16.3%; that for `Cc1nc(CC(=O)N2CCCCC2Cn2cccn2)cs1` (stereo not drawn), 25.2%.

Consider `Cc1cnc(CN(C)C2CCN(Cc3nc4ccccc4s3)C2)o1` (stereo not drawn), for which the cytotoxicity at 70.5 h is 51.7%. The result for `Cc1ccc(C(=O)N(C)Cc2cc(C)on2)cn1` reads -2.86%; that for `CCN1CCN(c2ccc(CNC(=O)c3cnn(C)c3C)cn2)CC1`, -8.48%; that for `CCOc1ncccc1CNC(=O)NC(C)Cn1cccn1` (stereo not drawn), 25.9%. To `Cc1cc(CN(C)C(=O)c2ccc(N(C)C)nc2)no1` belongs -7.16%; to `COc1ccccc1N1CCN(C(=O)NC(C)c2nncn2C)CC1` (stereo not drawn), -5.73%. To `CC(NC(=O)N(C)CCCOc1ccccc1)c1nncn1C` (stereo not drawn) belongs -5.85%.

With `COc1ncccc1CNC(=O)NCCNS(C)(=O)=O`, the cytotoxicity at 70.5 h is -2.56%. Regarding `CC(NC(=O)N(C)CCOc1ccccc1F)c1nncn1C` (stereo not drawn), the cytotoxicity at 70.5 h is -4.64%.

For `Cc1ccccc1OCCN(C)C(=O)NC(C)c1nncn1C` (stereo not drawn), the cytotoxicity at 70.5 h is -6.52%.

Consider `CCOc1ccc(C(=O)N2CCCS2(=O)=O)cc1OC`, for which the cytotoxicity at 70.5 h is -4.2%. To `Cc1cccc(N2CCN(C(=O)NC(C)c3nncn3C)CC2)c1C` (stereo not drawn) belongs -3.82%; to `CC(NC(=O)N1CCN(c2ccccc2O)CC1)c1nncn1C` (stereo not drawn), 1.59%. On to `CCN1CCN(c2ccc(CNC(=O)c3ccccc3F)cn2)CC1`, for which the cytotoxicity at 70.5 h is -0.777%. With `Cc1ccc(C)c(S(=O)(=O)CCN2CCc3c(ncn3C)C2)c1`, the cytotoxicity at 70.5 h came to 16%. Consider `CCCC(=O)N(C)CC(=O)Nc1ccc(Br)cn1`, for which the cytotoxicity at 70.5 h is -2.34%. Take `c1cnn(CC2CCCCN2Cc2nc(-c3ccsc3)no2)c1` (stereo not drawn): the cytotoxicity at 70.5 h is -4.27%. To `CC(=O)N(Cc1noc(C2CC2)n1)C1CCN(Cc2ccncc2)C1` (stereo not drawn) belongs 19.8%; to `CCc1nc(C2CCCN2C(=O)c2nccnc2N)no1` (stereo not drawn), -18.5%. To `Cc1cnn(CC2CCCN2C(=O)c2ccc3nnc(C)n3c2)c1` (stereo not drawn) belongs -1.07%; to `CCc1nc(C)ncc1C(=O)N1CCCC(n2nc(C)nc2C)C1` (stereo not drawn), -12%. To `CSC(C)C(=O)N1CCCN(Cc2cscn2)CC1` (stereo not drawn) belongs 17.9%; to `CC(Cn1ccnc1)NC(=O)NCCNC(=O)C(C)C` (stereo not drawn), 16.2%; to `Cc1ccc(OCC(=O)NS(=O)(=O)c2cccnc2)cc1C`, 23.3%. Take `COc1cccc(CNCc2c(C(C)C)nn(C)c2N(C)C)c1OC`: the cytotoxicity at 70.5 h is -3.04%. The result for `CC(C)Cc1noc(CN2CCN(CCO)CC2)n1` reads -4.77%. Consider `CC(C)Cc1noc(CN2CCOCC2)n1`, for which the cytotoxicity at 70.5 h was -0.996%. To `Cc1nn(C)c(N(C)C)c1CNCc1cccc(OCCN(C)C)c1` belongs 27.3%; to `CCn1ccnc1CN1CCN(CC(=O)NC(C)(C#N)C2CC2)CC1` (stereo not drawn), -6.12%.

`CCn1ccnc1CN1CCN(CC(=O)NC(=O)NC2CC2)CC1`: the cytotoxicity at 70.5 h is -8.53%. For the compound `COc1ccc(OC)c(CCNC(=O)NC(C)Cn2ccnc2)c1` (stereo not drawn), the cytotoxicity at 70.5 h is 22%.

In the case of `CCOCC(O)CN1CCN(C(=O)Cc2ccccc2C)CC1` (stereo not drawn), the cytotoxicity at 70.5 h is -1.93%. In the case of `COc1ccccc1CCNC(=O)CN1CCCC1c1noc(C)n1` (stereo not drawn), the cytotoxicity at 70.5 h is -3.07%. The result for `Cc1cc(C)c(OCC(=O)NS(=O)(=O)c2cccnc2)c(C)c1` reads -3.3%; that for `Cc1oc(C)c(C(=O)NCc2cccnc2N(C)C)c1C`, -12.5%. To `Cc1cc(C)n(CC(=O)N2CCC(NS(C)(=O)=O)CC2)n1` belongs -11.4%; to `CC(Cc1ccco1)NC(=O)Nc1ccc(N2CCOCC2)nc1` (stereo not drawn), -4.87%.

On to `COc1cc(CNC(=O)Nc2cc(C(F)(F)F)c[nH]c2=O)ccn1`, for which the cytotoxicity at 70.5 h amounted to 1.69%. To `N#Cc1cn(C2CC2)c(=O)n(CC(O)c2ccc(OC(F)F)cc2)c1=O` (stereo not drawn) belongs -17.5%; to `Cc1cc(NC(=O)NCC(C)O)n(C)n1` (stereo not drawn), 0.0779%. The result for `Cc1cc(C)c(CNC(=O)N2CCN(c3cnccn3)CC2)c(=O)[nH]1` reads -4.71%. In the case of `CCn1ccnc1CN1CCN(C(C)C(=O)NC2CCCCC2)CC1` (stereo not drawn), the cytotoxicity at 70.5 h came to 33.2%. The result for `O=C(c1cccc2c1OCCO2)N1CCCC(n2ccnc2)C1` (stereo not drawn) reads -5.73%; that for `Cc1cc(NC(=O)NCC(O)c2ccc(Cl)cc2Cl)n(C)n1` (stereo not drawn), -11.8%. To `Cc1nnc2n1CCN(C(=O)c1cc(Cl)c(Cl)n1C)C2` belongs -3.86%; to `CCc1nc(CC(=O)N2CCn3c(nnc3C(C)C)C2)cs1`, 0.586%. To `CCOCC(O)CN1CCN(C(=O)Cc2ccccc2Cl)CC1` (stereo not drawn) belongs -0.667%; to `CCc1nc(CC(=O)N2CCn3c(nnc3C(F)(F)F)C2)cs1`, -7.01%; to `COc1ccccc1CC(=O)NCc1c(C)nc2cc(=O)[nH]n2c1C`, -8.5%.

For `c1ccc(-c2noc(CN3CCc4cncnc4C3)n2)nc1`, the cytotoxicity at 70.5 h was -9.29%. For `Cc1nc(C2CCCN2CC(=O)NCCOc2ccccc2)no1` (stereo not drawn), the cytotoxicity at 70.5 h was 0.566%. To `COc1cc(CNc2cnn(C)c2)cc2c1OCCO2` belongs -4.12%. With `Cc1ncsc1C(=O)N(C)Cc1cccc(Cl)c1`, the cytotoxicity at 70.5 h was 9.51%. To `O=C(Cn1nc(-c2ccc(F)cc2)oc1=O)Nc1ccccc1` belongs 13.9%; to `Cc1ccc(C(=O)Nc2cn[nH]c2)cn1`, -1.81%.

Turning to `Cc1cc(CN(C)C(=O)NC2CCN(Cc3ccccc3)C2)no1` (stereo not drawn), the cytotoxicity at 70.5 h is 7.2%.

Regarding `CN(Cc1ccccc1O)C(=O)NC1CCCN(c2ncccn2)C1` (stereo not drawn), the cytotoxicity at 70.5 h amounted to 22.3%. To `CCn1cc(NC(=O)NCC(O)COc2cccc(F)c2)cn1` (stereo not drawn) belongs -4.45%; to `CCN(CC)C(=O)Cn1ccc2cc(NC(=O)C3CCCO3)ccc21` (stereo not drawn), 7.81%. Turning to `CC(=O)c1cccc(OCCCC(=O)NCC2CCCN2C)c1` (stereo not drawn), the cytotoxicity at 70.5 h amounted to 7.09%.

Take `CC(Cn1ccnc1)NC(=O)N1CCN(Cc2cccnc2)CC1` (stereo not drawn): the cytotoxicity at 70.5 h turned out to be 0.583%. To `Cc1nc(CNC(=O)Cn2nc(-c3ccc(F)cc3)oc2=O)cs1` belongs 0.339%. The result for `CSc1sc(NC(=O)Cc2c(C)nc(C)[nH]c2=O)nc1C` reads 3.66%; that for `O=C(Nc1ncn(CC(=O)N2CCCCCC2)n1)C1CCCO1` (stereo not drawn), 2.64%; that for `NC(=O)c1cnn2c1NCC(CNCCCOc1ccccc1F)C2` (stereo not drawn), 6.81%. The result for `Cc1ccc(C(=O)N2CCN(C(=O)NC(C)Cn3ccnc3)CC2)o1` (stereo not drawn) reads -4.96%. For the compound `CC(C)c1nnc2n1CCN(C(=O)CN1Cc3ccccc3C1=O)C2`, the cytotoxicity at 70.5 h was determined as 4.15%.

Take `NC(=O)c1cnn2c1NCC(CNCCc1ccco1)C2` (stereo not drawn): the cytotoxicity at 70.5 h is -1.07%. With `Cc1cnn(CC2CCCCN2Cc2noc(C3CC3)n2)c1` (stereo not drawn), the cytotoxicity at 70.5 h is -6.32%. The result for `Cc1nc(C)n(CC2CN(c3nnc(C)c(C)c3C#N)CCO2)n1` (stereo not drawn) reads 5.76%.

Consider `CNS(=O)(=O)c1ccc(C(=O)NC2CCc3nc(C)cn3C2)o1` (stereo not drawn), for which the cytotoxicity at 70.5 h is -6.79%. As for `Cc1cn2c(n1)CCC(NC(=O)c1ccc(CS(C)(=O)=O)cc1)C2` (stereo not drawn), the cytotoxicity at 70.5 h was -1.89%. In the case of `CN(C(=O)NCc1ccncc1)C1CCN(c2ccccc2)C1=O` (stereo not drawn), the cytotoxicity at 70.5 h worked out at 11.5%.

Regarding `O=C(Nc1ccccc1F)N(CCO)Cc1ccsc1`, the cytotoxicity at 70.5 h came to 31.8%. On to `Cc1ncsc1C(=O)N(C)CCc1ccncc1`, for which the cytotoxicity at 70.5 h was -2.51%. The result for `CC(=O)N1CCN(Cc2csc(-c3cnn(C)c3)n2)CC1` reads 2.34%; that for `CC(C)c1nnc2n1CCN(CC(=O)N1CCc3ccccc3C1)C2`, 11.4%. The result for `Cn1cc(Cl)cc1C(=O)N1CCN(Cc2ccsc2)CC1` reads 0.559%. The result for `Cc1nn(C)c(C)c1CC(=O)N1CCC(N(C)c2cccnn2)CC1` reads 20.4%; that for `COCC(c1cccc(C(F)(F)F)c1)N(C)C(=O)c1cc(C)no1` (stereo not drawn), 20%; that for `COCC(=O)NCc1cccc(Br)c1`, 19.4%. In the case of `O=C(CN1CCC(c2cccc(F)c2)C1)NCC(F)(F)F` (stereo not drawn), the cytotoxicity at 70.5 h turned out to be 26.9%. The result for `Cc1nc(C2CCCN2CCCS(=O)(=O)N(C)C)no1` (stereo not drawn) reads 22.2%; that for `CCCn1[nH]cc/c1=N\C(=O)CN1CCn2c(nnc2C2CC2)C1`, 8.11%; that for `CCN1CCN(C(=O)c2cc(C(=O)OC)nn2-c2ccccc2)CC1`, 0.312%. Consider `CSCCCN1CCCC1c1noc(C)n1` (stereo not drawn), for which the cytotoxicity at 70.5 h was determined as 1.11%. The result for `Cc1cnn(CCNCc2csc(-c3ccc4c(c3)OCO4)n2)c1` reads 10.2%.

Consider `Cc1nn(C)c(N(C)C)c1CNC1CCc2c(F)cccc21` (stereo not drawn), for which the cytotoxicity at 70.5 h is 7.05%.
